Among the data in patent publication US9328106B2, “Cyclic ether pyrazol-4-yl-heterocyclyl-carboxamide compounds and methods of use” (Genentech, Inc., priority 2012, dated 2016) are Ki, EC50 and IC50 values, retold here.

Read-outs that look alike come from different tables or passages of the source.

In one assay the target is PIM1 (Homo sapiens (Human), UniProt P11309). The assay is described as follows: biochemical. Format: biochemical. The following applies: 20 pM PIM1, 1 μM FAM-peptide, 10 μM ATP, 90 minutes at room temperature; read-out: PIM1 LC3K (KI).
Assay [1] relates to MM1.S (multiple myeloma) cells. Nature of the assay: In vitro cell proliferation, MM1.S multiple myeloma cells.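 Further: cells cultured in RPMI with 10% FBS and 2 mM L-Glutamine, seeded in 384-well plates, exposed to compound, cell viability measured by luminescence after CellTiter-Glo addition.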 Format: cell-based. The following applies: read-out: Prolif MM1S ATP (EC50).
Experimental: BaF3 parental line was obtained from the DSMZ repository. […] Media for BaF3 parental line contained RPMI, 10% FBS, 2 mM L-Glutamine, 2 ng/mL mIL-3. Media for BaF3 PIM1 & 2 lines contained RPMI, 10% FBS, 2 mM L-Glutamine, 250 μg/mL. Media for MM1.S (multiple myeloma cells) line contained RPMI, 10% FBS, 2 mM L-Glutamine.
BaF3, a murine interleukin-3 dependent pro-B cell line, parental cells, BaF3 PIM1 cells, BaF3 PIM2 cells, and MM1.S (multiple myeloma) cells were seeded at 2 k/well, 5 k/well, 5 k/well, and 10 k/well respectively, in a 384-well plate, at 45 μL/well. Test compound was added at 5 μL/well. BaF3 cells (parental and transfected) were incubated overnight, while MM1.S cells were incubated for 72 hours at 37° C., 5% CO2. CELL TITER GLO® Reagent (Promega) was added at 50 μL/well, the plates were incubated for 30 minutes, and their luminescence read on an HT Analyst. IC50/EC50 values for the test compound were calculated.
The next assay concerns BaF3 parental cells. Nature of the assay: In vitro cell proliferation, BaF3 parental line + IL3.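 Further: BaF3 parental cells are murine IL-3 dependent pro-B cells grown with 2 ng/mL mIL-3, 384-well format, viability read by luminescence.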 Format: cell-based, murine.
The next assay deals with BaF3 PIM1 cells. The assay is described as follows: In vitro cell proliferation, BaF3 transfected with PIM1.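 Further: murine IL-3-dependent pro-B BaF3 cells transfected with PIM1, compound exposure overnight at 37 °C under 5% CO2, viability read as luminescence.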 Format: cell-based, murine.
The mark [2] stands for this setting: MM1.S cells, 72 hours, CELL TITER GLO.
The mark [3] stands for this setting: Mus musculus, BaF3, BaF3 parental, mIL-3, incubated overnight, CELL TITER GLO, read-out: Prolif BaF3 IL3 (IC50).
Setting [4] is: read-out: Prolif BaF3 PIM1 (IC50), BaF3 PIM1 cells, incubated overnight, CELL TITER GLO.
Setting [5] is: Homo sapiens, MM1.S, 72 h, MM1.S cells, 72 hours, CELL TITER GLO.
Where [6] appears, read: Mus musculus, BaF3, read-out: Prolif BaF3 PIM1 (IC50), BaF3 PIM1 cells, incubated overnight, CELL TITER GLO.

Sequence of PIM1 (P11309 whole entry): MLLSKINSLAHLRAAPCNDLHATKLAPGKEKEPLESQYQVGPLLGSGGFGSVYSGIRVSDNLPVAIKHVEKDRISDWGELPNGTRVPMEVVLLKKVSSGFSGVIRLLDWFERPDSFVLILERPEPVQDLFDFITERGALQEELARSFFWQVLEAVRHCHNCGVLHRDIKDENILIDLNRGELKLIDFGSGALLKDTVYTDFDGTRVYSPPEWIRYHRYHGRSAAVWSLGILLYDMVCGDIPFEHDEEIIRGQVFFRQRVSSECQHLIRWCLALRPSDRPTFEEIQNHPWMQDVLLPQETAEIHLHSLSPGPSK

On to `Cn1ncc(NC(=O)c2nc(-c3c(F)cccc3F)sc2N)c1C12CCC(O)C(CC1)O2` (single isomer, unassigned) [Example 109, 5-amino-2-(2,6-difluorophenyl)-N-[5-(2-hydroxy-8-oxabicyclo[3.2.1]octan-5-yl)-1-methyl-pyrazol-4-yl]thiazole-4-carboxamide], for which the inhibitory constant (Ki) (usually the dissociation constant of the complex between target and ligand, obtained from inhibition or displacement) on PIM1 was 0.034 nM. Also, the EC50 – broadly, the concentration giving half of the maximal effect – in assay [1] (setting [2]) amounted to 9200 nM. In addition, the values for the IC50 in the assay with BaF3 parental cells (setting [3]) and in the assay with BaF3 PIM1 cells (setting [4]) were 8300 nM and 115 nM, respectively.
With `CN(C)c1ccc(-c2nc(C(=O)Nc3cnn(C)c3[C@@H]3CC[C@@H](N)[C@H](F)CO3)cs2)cn1` [Example 385, N-[5-[(2S,5R,6S)-5-amino-6-fluoro-oxepan-2-yl]-1-methyl-pyrazol-4-yl]-2-[6-(dimethylamino)-3-pyridyl]thiazole-4-carboxamide], the Ki at PIM1 worked out at 0.2 nM. For the same molecule, in assay [1] (setting [5]), the 50% effective concentration (EC50) was found to be 1200 nM. The 50% inhibitory concentration (IC50) (in general, the concentration that inhibits the measured activity by half) is 12000 nM in the assay with BaF3 parental cells (setting [3]) and 118 nM in the assay on BaF3 PIM1 cells (setting [6]).
The like results for `Cn1ncc(NC(=O)c2csc(-c3cc[nH]n3)n2)c1[C@@H]1CC[C@@H](N)[C@H](F)CO1` [Example 379, N-[5-[(2S,5R,6S)-5-amino-6-fluoro-oxepan-2-yl]-1-methyl-pyrazol-4-yl]-2-(1H-pyrazol-3-yl)thiazole-4-carboxamide] were, in that order, 0.129 nM, 2900 nM, above 25000 nM and 980 nM.
The like results for `Cn1ncc(NC(=O)c2nc(-c3ccccc3)sc2N)c1[C@@H]1CC[C@@H](N)[C@H](F)CO1` [Example 320, 5-amino-N-(5-((2S,5R,6S)-5-amino-6-fluorooxepan-2-yl)-1-methyl-1H-pyrazol-4-yl)-2-phenylthiazole-4-carboxamide] were, in that order, 0.036 nM, 187 nM, above 25000 nM and 24.4 nM.
The like results for `Cn1ncc(NC(=O)c2csc(-c3c(F)cccc3F)n2)c1[C@@H]1CC[C@@H](N)[C@@H](F)CO1` [Example 319, N-(5-((2S,5R,6R)-5-amino-6-fluorooxepan-2-yl)-1-methyl-1H-pyrazol-4-yl)-2-(2,6-difluorophenyl)thiazole-4-carboxamide] were, in that order, 0.038 nM, 875 nM, 7800 nM and 129 nM.
Take `CC(C)Oc1ncccc1-c1nc(C(=O)Nc2cnn(C)c2[C@@H]2CC[C@@H](N)[C@H](F)CO2)cs1` [Example 384, N-[5-[(2S,5R,6S)-5-amino-6-fluoro-oxepan-2-yl]-1-methyl-pyrazol-4-yl]-2-(2-isopropoxy-3-pyridyl)thiazole-4-carboxamide]: the Ki on PIM1 was 9.7 nM. Further, the EC50 in assay [1] (setting [5]) was 4400 nM. Further, the concentration for half-maximal inhibition (IC50) in the assay with BaF3 parental cells (setting [3]) is 7200 nM; with BaF3 PIM1 cells (setting [6]), 5600 nM.
In the same order, the values of `Cn1ncc(NC(=O)c2csc(-c3c(F)cc(C4(F)COC4)cc3F)n2)c1[C@@H]1CC[C@@H](N)[C@H](F)CO1` [Example 340, N-(5-((2S,5R,6S)-5-amino-6-fluorooxepan-2-yl)-1-methyl-1H-pyrazol-4-yl)-2-(2,6-difluoro-4-(3-fluorooxetan-3-yl)phenyl)thiazole-4-carboxamide] are 0.01 nM, above 6200 nM, 20700 nM and 51.7 nM.
In the same order, the values of `Cn1ncc(NC(=O)c2csc(-c3ccccn3)n2)c1[C@@H]1CC[C@@H](N)[C@H](F)CO1` [Example 326, N-(5-((2S,5R,6S)-5-amino-6-fluorooxepan-2-yl)-1-methyl-1H-pyrazol-4-yl)-2-(pyridin-2-yl)thiazole-4-carboxamide] are 0.031 nM, 436 nM, 12400 nM and 132 nM.
As to `Cn1ncc(NC(=O)c2nc(-c3c(F)cccc3F)sc2N)c1C12CCC(O)C(CC1)O2` (single isomer, unassigned) [Example 110, 5-amino-2-(2,6-difluorophenyl)-N-[5-(2-hydroxy-8-oxabicyclo[3.2.1]octan-5-yl)-1-methyl-pyrazol-4-yl]thiazole-4-carboxamide], the Ki at PIM1 turned out to be 0.017 nM. Also, the EC50 in assay [1] (setting [2]) came out at 2400 nM. For the same molecule, the IC50 in the assay on BaF3 parental cells (BaF3 parental, mIL-3, incubated overnight, CELL TITER GLO, read-out: Prolif BaF3 IL3 (IC50)) is 9400 nM; with BaF3 PIM1 cells (setting [4]), 44.8 nM.
For the molecule `CO[C@@H]1CO[C@H](c2c(NC(=O)c3csc(-c4c(F)cc(C)cc4F)n3)cnn2C)CC[C@H]1N` [Example 355, N-(5-((2S,5R,6S)-5-amino-6-methoxyoxepan-2-yl)-1-methyl-1H-pyrazol-4-yl)-2-(2,6-difluoro-4-methylphenyl)thiazole-4-carboxamide], the Ki at PIM1 was found to be 0.035 nM. The EC50 in assay [1] (setting [5]) was determined as 1600 nM. For the same molecule, the results for the IC50 with BaF3 parental cells (setting [3]) and in the assay with BaF3 PIM1 cells (setting [6]) were 3900 nM and 53.5 nM, respectively.
The like results for `Cn1ncc(NC(=O)c2csc(-c3ccc(F)cc3F)n2)c1[C@@H]1CC[C@@H](N)[C@H](F)CO1` [Example 325, N-(5-((2S,5R,6S)-5-amino-6-fluorooxepan-2-yl)-1-methyl-1H-pyrazol-4-yl)-2-(2,4-difluorophenyl)thiazole-4-carboxamide] were, in that order, 0.05 nM, 735 nM, 6300 nM and 142 nM.
For `Cn1ncc(NC(=O)c2nc(-c3cccc(F)c3F)sc2N)c1[C@@H]1CC[C@@H](N)[C@H](F)CO1` [Example 324, 5-amino-N-(5-((2S,5R,6S)-5-amino-6-fluorooxepan-2-yl)-1-methyl-1H-pyrazol-4-yl)-2-(2,3-difluorophenyl)thiazole-4-carboxamide], the Ki on PIM1 was 0.019 nM. Also, the EC50 in assay [1] (setting [5]) came out at 116 nM. Besides, the figures for the IC50 in the assay on BaF3 parental cells (setting [3]) and in the assay with BaF3 PIM1 cells (setting [6]) were above 25000 nM and 45.3 nM, respectively.
In the case of `COc1ccc(F)c(-c2nc(C(=O)Nc3cnn(C)c3[C@@H]3CC[C@@H](N)[C@H](F)CO3)cs2)c1` [Example 356, N-(5-((2S,5R,6S)-5-amino-6-fluorooxepan-2-yl)-1-methyl-1H-pyrazol-4-yl)-2-(2-fluoro-5-methoxyphenyl)thiazole-4-carboxamide], on PIM1, the Ki was found to be 0.053 nM. Besides, the EC50 in assay [1] (setting [5]) amounted to 1400 nM. The IC50 is 6500 nM with BaF3 parental cells (setting [3]) and 108 nM in the assay with BaF3 PIM1 cells (setting [6]).
For `Cn1ncc(NC(=O)c2csc(-c3n[nH]c4c3CCC(C)(C)C4)n2)c1[C@@H]1CC[C@@H](N)[C@H](F)CO1` [Example 373, N-(5-((2S,5R,6S)-5-amino-6-fluorooxepan-2-yl)-1-methyl-1H-pyrazol-4-yl)-2-(6,6-dimethyl-4,5,6,7-tetrahydro-1H-indazol-3-yl)thiazole-4-carboxamide], on PIM1, the Ki came out at 0.009 nM. Moreover, the EC50 in assay [1] (setting [5]) worked out at 3400 nM. In addition, the IC50 with BaF3 parental cells (setting [3]) amounted to 8600 nM; in the assay with BaF3 PIM1 cells (setting [6]), 101 nM.
In the case of `Cn1ncc(NC(=O)c2nc(-c3c(F)cccc3F)sc2N)c1C1CC[C@H](N)[C@H](F)CO1` (stereo partly drawn) [Example 131, 5-amino-N-(5-((5S,6S)-5-amino-6-fluorooxepan-2-yl)-1-methyl-1H-pyrazol-4-yl)-2-(2,6-difluorophenyl)thiazole-4-carboxamide], the inhibition constant (Ki) on PIM1 came to 0.27 nM. Further, the half-maximal effective concentration (EC50) in assay [1] (setting [5]) came to 10000 nM. Further, the figures for the IC50 with BaF3 parental cells (setting [3]) and in the assay on BaF3 PIM1 cells (setting [6]) were 6800 nM and 1500 nM, respectively.
The like results for `Cn1ncc(NC(=O)c2nc(-c3ccccc3C(F)(F)F)sc2N)c1[C@@H]1CC[C@@H](N)[C@H](F)CO1` [Example 323, 5-amino-N-(5-((2S,5R,6S)-5-amino-6-fluorooxepan-2-yl)-1-methyl-1H-pyrazol-4-yl)-2-(2-(trifluoromethyl)phenyl)thiazole-4-carboxamide] were, in that order, 0.283 nM, 10000 nM, above 25000 nM and 186 nM.
In the same order, the values of `Cn1ncc(NC(=O)c2csc(-c3ccccc3)n2)c1[C@@H]1CC[C@@H](N)[C@H](F)CO1` [Example 327, N-(5-((2S,5R,6S)-5-amino-6-fluorooxepan-2-yl)-1-methyl-1H-pyrazol-4-yl)-2-phenylthiazole-4-carboxamide] are 0.021 nM, 648 nM, 16800 nM and 176 nM.
Take `CC[C@@H]1CC(N)CC[C@H](c2c(NC(=O)c3nc(-c4c(F)cccc4F)sc3N)cnn2C)O1` (stereo partly drawn) [Example 112, 5-amino-N-(5-((2R,7R)-5-amino-7-ethyloxepan-2-yl)-1-methyl-1H-pyrazol-4-yl)-2-(2,6-difluorophenyl)thiazole-4-carboxamide]: at PIM1, the inhibitory constant (Ki) is 0.502 nM. Besides, the EC50 in assay [1] (setting [5]) was 8500 nM. Besides, the figures for the IC50 in the assay with BaF3 parental cells (setting [3]) and in the assay on BaF3 PIM1 cells (setting [6]) were 6900 nM and 2100 nM, respectively.
For `CO[C@@H]1COC(c2c(NC(=O)c3nc(-c4c(F)cccc4F)sc3N)cnn2C)CC[C@H]1N` (stereo partly drawn) [Example 126, 5-amino-N-(5-((5R,6S)-5-amino-6-methoxyoxepan-2-yl)-1-methyl-1H-pyrazol-4-yl)-2-(2,6-difluorophenyl)thiazole-4-carboxamide], the Ki at PIM1 turned out to be 0.026 nM. Further, in assay [1] (Homo sapiens, MM1.S, 72 h), the EC50 came to 21.7 nM. For the same molecule, the half-inhibitory concentration (IC50) was 25000 nM in the assay with BaF3 parental cells (Mus musculus, BaF3, read-out: Prolif BaF3 IL3 (IC50)) and 25.2 nM with BaF3 PIM1 cells (setting [6]).
For `Cn1ncc(NC(=O)c2csc(-c3c(F)cc(C4CC4)cc3F)n2)c1[C@@H]1CC[C@@H](N)[C@H](F)CO1` [Example 358, N-(5-((2S,5R,6S)-5-amino-6-fluorooxepan-2-yl)-1-methyl-1H-pyrazol-4-yl)-2-(4-cyclopropyl-2,6-difluorophenyl)thiazole-4-carboxamide], the inhibitory constant (Ki) on PIM1 stood at 0.009 nM. Moreover, the 50% effective concentration (EC50) in assay [1] (setting [5]) is 938 nM. For the same molecule, the results for the IC50 in the assay on BaF3 parental cells (setting [3]) and in the assay on BaF3 PIM1 cells (setting [6]) were 4100 nM and 68.2 nM, respectively.
